Reference: patent publication EP3807270B1, “NOVEL HETEROARYL HETEROCYCLYL COMPOUNDS FOR THE TREATMENT OF AUTOIMMUNE DISEASE” (F. Hoffmann-La Roche AG, priority 2018, dated 2019)

Tests used:
CYP2D6 = biological target: T1, CYP2D6 (Homo sapiens, UniProt P10635); test: CYP inhibition assay in human liver microsome; type: in vitro ADME; conditions: human liver microsomes, probe dextromethorphan, 10µM test compound, dextromethorphan substrate, <0: not or weak inhibitor, read-out: CYP 2D6 inhibition %@10µM
T1 construct: tissue BD-Gentest 452117; host or cells: human liver microsomes
T1 sequence (P10635 whole entry): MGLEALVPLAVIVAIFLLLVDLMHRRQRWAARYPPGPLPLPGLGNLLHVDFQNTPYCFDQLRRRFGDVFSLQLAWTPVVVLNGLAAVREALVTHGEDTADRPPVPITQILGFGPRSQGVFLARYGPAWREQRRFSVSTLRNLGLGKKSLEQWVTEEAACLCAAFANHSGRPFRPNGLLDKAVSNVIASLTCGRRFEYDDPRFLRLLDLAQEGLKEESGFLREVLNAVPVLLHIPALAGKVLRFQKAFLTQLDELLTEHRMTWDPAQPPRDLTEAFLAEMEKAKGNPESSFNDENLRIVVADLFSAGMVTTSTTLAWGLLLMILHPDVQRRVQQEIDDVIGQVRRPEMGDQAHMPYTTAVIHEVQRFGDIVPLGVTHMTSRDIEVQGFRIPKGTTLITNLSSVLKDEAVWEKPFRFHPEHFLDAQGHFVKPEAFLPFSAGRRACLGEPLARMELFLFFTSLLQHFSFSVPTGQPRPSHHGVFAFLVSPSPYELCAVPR
Experimental: This is a high throughput screening assay used for assessment of reversible inhibition of CYP2D6 activity of test compounds in human liver microsome (HLM) in early discovery stage. Table 4. Chemicals and materials used in the CYP inhibition assay
10 mM DMSO stock solutions of test compounds were diluted in DMSO to generate 2 mM intermediate stock solution. 250 nL of intermediate stock solution were transferred in duplicate into 3 separate 384 well microtitre plates (assay-ready plates). A mixture of HLM and each substrate was made up. 45 µL of HLM substrate mix was then transferred to each well of an assay ready plate and mixed. The negative (solvent) and positive control (standard inhibitor for CYP 2D6) were included in each assay ready plate. The assay ready plate was warmed to 37 °C in an incubator over 10 minutes. 5 µL pre-warmed NADPH regenerating system was added to each incubation well to start the reaction. Final incubation volume was 50 µL. The assay plate then was placed back in the 37 °C incubator. After 10-minute incubation, incubates were quenched by addition of 50 µL 100% acetonitrile containing internal standards (20 ng/mL D3-Dextrorphan). The supernatants were collected for RapidFire/MS/MS analysis.
RapidFire online solid phase extraction/sample injection system (Agilent) coupled with API4000 triple quadrupole mass spectrometer (AB Sciex) were used for sample analysis. The mobile phase composed of acetonitrile and water supplemented with 0.1% formic acid. A C4 solid phase extraction cartridge is used for sample separation. MS detection is achieved in positive ion MRM mode.
Peak areas for substrate, metabolite and internal standard are determined using the RapidFire integrator software (version 3.6.12009.12296). Peak area ratios (PAR) of metabolite and internal standard (stable-labelled metabolite) are then calculated. The measurement window for each experiment is then defined: • PAR (0% activity)= average PAR for all incubations containing concentrated inhibitor; • Par (100% activity)= average PAR for all incubations containing no inhibitor (DMSO controls); • % Activity (test inhibitor) • =[PAR(test inhibitor)-PAR(0% activity)]/[PAR(100% activity)-PAR(0% activity)]; • % Inhibition (test inhibitor)=100-% Activity (test inhibitor).

[1] = Human microsome stability assay; type: in vitro ADME; conditions: 1 µM test compound, 0.5 mg/mL liver microsomal protein, 37 °C
Experimental: The human microsomal stability assay is used for early assessment of metabolic stability of a test compound in human liver microsomes.
Human liver microsomes (Cat.NO.: 452117, Corning, USA;Cat.NO.:H2610, Xenotech, USA) were preincubated with test compound for 10 minutes at 37 °C in 100 mM potassium phosphate buffer, pH 7.4. The reactions were initiated by adding NADPH regenerating system. The final incubation mixtures contained 1 µM test compound, 0.5 mg/mL liver microsomal protein, 1 mM MgClz, 1 mM NADP, 1 unit/mL isocitric dehydrogenase and 6 mM isocitric acid in 100 mM potassium phosphate buffer, pH 7.4. After incubation times of 0, 3, 6, 9, 15 and 30 minutes at 37 °C, 300 µL of cold acetonitrile (including internal standard) was added to 100 µL incubation mixture to terminate the reaction. Following precipitation and centrifugation, the amount of compound remaining in the samples were determined by LC-MS/MS. Controls of no NADPH regenerating system at zero and 30 minutes were also prepared and analyzed. […] Table 6. Human liver microsome stability of the compounds of present invention

| Structure (SMILES) | inhibition at 10 min, 10 µM (CYP2D6) [%] | Clearance of Human microsome [1] [mL/min/kg] |
| --- | --- | --- |
| Cc1cnc2c(C#N)ccc(N3C[C@H](CN4CCN(c5cc6c(cn5)CCNC6)CC4)O[C@H](C)C3)c2n1 [Example 90, 2-methyl-8-[(2R,6S)-2-methyl-6-[[4-(5,6,7,8-tetrahydro-2,6-naphthyridin-3-yl)piperazin-1-yl]methyl]morpholin-4-yl]quinoxaline-5-carbonitrile] | 5 |  |
| C[C@@H]1CN(c2ccc(C#N)c3ncnn23)C[C@H](CN2CCN(c3cnc4c(c3)CNCC4)CC2)O1 [Example 27, 5-[(2R,6S)-2-methyl-6-[[4-(5,6,7,8-tetrahydro-1,6-naphthyridin-3-yl)piperazin-1-yl]methyl]morpholin-4-yl]-[1,2,4]triazolo[1,5-a]pyridine-8-carbonitrile] |  | 7.28 |
| C[C@@H]1CN(c2ccc(C#N)c3ncccc23)C[C@H](CN2CC3COCC(C2)N3c2cnc3c(c2)CNC3)O1 [Example 37, 5-[(2S,6R)-2-[[9-(6,7-dihydro-5H-pyrrolo[3,4-b]pyridin-3-yl)-3-oxa-7,9-diazabicyclo[3.3.1]nonan-7-yl]methyl]-6-methyl-morpholin-4-yl]quinoline-8-carbonitrile] |  | 6.72 |
| COc1ccc(N2C[C@H](CN3CCN(c4cc5c(cn4)CCNC5)CC3)O[C@H](C)C2)c2nccnc12 [Example 89, (2R,6S)-4-(8-methoxyquinoxalin-5-yl)-2-methyl-6-[[4-(5,6,7,8-tetrahydro-2,6-naphthyridin-3-yl)piperazin-1-yl]methyl]morpholine] |  | 6.54 |
| C[C@@H]1CN(c2ccc(C(F)(F)F)c3nccnc23)C[C@H](CN2CCN(c3cc4c(cn3)CCNC4)CC2)O1 [Example 91, (2R,6S)-2-methyl-6-[[4-(5,6,7,8-tetrahydro-2,6-naphthyridin-3-yl)piperazin-1-yl]methyl]-4-[8-(trifluoromethyl)quinoxalin-5-yl]morpholine] | 14 |  |

Results, then the compound that gave them:

| inhibition at 10 min, 10 µM (CYP2D6) [%] | Clearance of Human microsome [1] [mL/min/kg] | Structure (SMILES) |
| --- | --- | --- |
|  | 6.67 | CCn1c(=O)cc(N2C[C@H](CN3CCN(c4ccc5c(n4)CN[C@@H]5C)CC3)O[C@H](C)C2)c2cccnc21 [Example 101, 1-ethyl-4-[(2R,6S)-2-methyl-6-[[4-[(5R)-5-methyl-6,7-dihydro-5H-pyrrolo[3,4-b]pyridin-2-yl]piperazin-1-yl]methyl]morpholin-4-yl]-1,8-naphthyridin-2-one] |
|  | 6.15 | C[C@@H]1CN(c2cc(=O)n(C)c3ncccc23)C[C@H](CN2CCN(c3cc4c(cn3)CCNC4)CC2)O1 [Example 103, 1-methyl-4-[(2R,6S)-2-methyl-6-[[4-(5,6,7,8-tetrahydro-2,6-naphthyridin-3-yl)piperazin-1-yl]methyl]morpholin-4-yl]-1,8-naphthyridin-2-one] |
|  | 8.54 | C[C@@H]1CN(c2cc(=O)n(C)c3ncccc23)C[C@H](CN2CCN(c3ccc4c(n3)CN[C@@H]4C)CC2)O1 [Example 100, 1-methyl-4-[(2R,6S)-2-methyl-6-[[4-[(5R)-5-methyl-6,7-dihydro-5H-pyrrolo[3,4-b]pyridin-2-yl]piperazin-1-yl]methyl]morpholin-4-yl]-1,8-naphthyridin-2-one] |
